Data on seven compounds can be found in patent publication US20240417778A1, “Methods for Nucleic Acid Cleavage” (priority 2021, published 2024).

Entries after “also recorded” stand apart in the source; their conditions may differ.

In data set [1] the test system is frameshifting in SARS-CoV-2. To be noted: Kelly et al., 2020; cited from earlier work.
Data set [2] relates to SARS-CoV-2. Briefly: Drug assay of SARS-CoV-2 replication on Vero CCL-81 cells (PCR). Format: cell-based. To be noted: Vero CCL-81, MOI 0.05, 24 h, added 1 h before or 1 h after infection.
The test system of data set [3] is oligomer corresponding to the coronaviral pseudoknot. To be noted: shape of MST binding curve.
In data set [4] the test system is RNA extracted from SARS-CoV-2. In kind it is biochemical. To be noted: 100 μM, 2 h, 37° C.
A short description of data set [5]: Solubility in aqueous media.
In data set [6] the target is perturbed pseudoknot oligonucleotide. Briefly: Micro-scale thermophoresis (MST), perturbed pseudoknot. In kind it is binding. To be noted: FAM-tagged oligonucleotide 50 nM, HEPES pH 7.4, 25.0° C.
Data set [7] has as its system RNA 69-er with a sequence that corresponds to the coronaviral pseudoknot. In kind it is biochemical. To be noted: 1 mM, 3 h incubation, 37° C.
Data set [8] relates to SARS-CoV-2. In kind it is cell-based. To be noted: 6 μM for 24 h, added before or after infection, vs vehicle control.
For data set [9], the system named is SARS-CoV-2. In kind it is in vivo, K18-hACE2 mice. To be noted: 10 mg/kg intranasally 1 hour pre- and 3 hours post-infection, day 5, plaque assay, vs vehicle.
Data set [10] relates to SARS-CoV-2. The data set is described as follows: Virucidal activity on cell free virions. To be noted: 6 μM, 1 h at 37° C., 1000 PFU, plaque assay.
Data set [11] concerns G4 structure found on 5′UTR of NRAS mRNA. The data set is described as follows: Fluorescence quenching assay. In kind it is binding. To be noted: Cy5-tagged oligonucleotide 50 nM, HEPES pH 7.4, 25.0° C. On the procedure:
To prepare oligonucleotides for binding studies, oligonucleotides were dissolved at an appropriate buffer to a final concentration of 100 nM, then incubated at 95° C. with shaking for 5 min. Samples were allowed to cool at room temperature for at least 1 h before further dilutions/treatments.
Cy5-tagged oligonucleotide corresponding to G4 structure found on 5′UTR of NRAS mRNA (final concentration 50 nM) were dissolved in 20 mM HEPES pH 7.4 buffer supplemented with KCl (100 mM) and MgCl2 (10 mM) and plated on a 96-well plate. Oligonucleotides were treated with various concentrations of PDS family ligands as indicated, ranging from 5 nM to 10 μM, or a water vehicle control, followed by 30 minute incubation at 4° C. Fluorescence corresponding to Cy5 fluorophore was then measured for each oligonucleotide-small molecule/vehicle control combination using a plate reader (BMG CLARIOstar) at 25.0° C. […] Fluorescence was normalised to a vehicle control and binding curves for each molecule were obtained via a sigmoidal fit by setting the Hill Slope coefficient to 1.
PDS and its derivatives were incubated with a Cy5-functionalised oligomer corresponding to a G-quadruplex in NRAS 5′UTR, a well-established G4 model. As fluorescence quenching is proximity-induced, the signal corresponding to Cy5 is quenched upon PDS binding. […]

A further data set deals with pseudoknot. To be noted: relative to MTDB (Park et al., 2011); cited from earlier work.
In the next data set the test system is E. coli ribosome. Briefly: In vitro degradation of E. coli ribozyme (agarose gel). Format: biochemical. To be noted: 15 mM to 0.47 mM, 18 hours, 200 μM ribozyme. On the procedure:
The degradation activity was measured in an in vitro assay, targeting the E. coli ribosome. […] Evaluation was made by agarose gel analysis.

With `CCOC(=O)c1ccccc1NC(=O)N1CCCN(Cc2csc(C)n2)CC1` [MTDB], the frameshifting entry in [1] was “known to disrupt frameshifting in SARS-CoV-2”. Moreover, in the data set on SARS-CoV-2 [2], the “antiviral effect (viral replication, E gene and pseudoknot region RNA)” value is “did not exhibit an antiviral effect; also recorded: did not inhibit viral replication”. For the same compound, the “concentration with noticeable binding” value in data set [3] is at least 187.5 µM. Also, in data set [4], the “degradation of native SARS-CoV-2 RNA on agarose gel” value is given as “do not”. The solubility entry in data set [5] is given as “not soluble enough for KD determination using MST; also recorded: limited solubility”. In addition, in data set [6], the KD entry was “No appreciable binding was observed”. The “degradation of RNA pseudoknot” value in data set [7] was “no degradation”. Also, the “number of viral plaques” value in the data set with SARS-CoV-2 [8] is given as “only showed decreased number of viral plaques when added before infection”. For the same compound, the lung viral load entry with SARS-CoV-2 [9] was “No differences in lung viral load”. Moreover, the virucidal effect entry in the data set with SARS-CoV-2 [10] is on record as “no virucidal effect was observed; also recorded: no virucidal effect on cell free virions”.
As to `NCCOc1cc(C(=O)Nc2cc(OCCN)c3ccccc3n2)nc(C(=O)Nc2cc(OCCN)c3ccccc3n2)c1` [PDS, Pyridostatin], the concentration giving a half-maximal response (EC50) (in general, the concentration at which the effect is half-maximal) in data set [11] amounted to 51 nM.
Regarding `CCOC(=O)c1ccccc1NC(=O)N1CCCN(Cc2ccsc2)CC1` [TDB], the “binding affinity towards the pseudoknot” value with pseudoknot was “lower binding affinity towards the pseudoknot”.
For the compound `O=C(N[C@H](CO)[C@H](O)c1ccc([N+](=O)[O-])cc1)C(Cl)Cl` [chloramphenicol, Chloramphenicol], in the data set with E. coli ribosome, the ribosome degradation result is reported as “no degradation”.
As to “chloramphenicol-2PEG-imidazole degrader [18b]”, the figures for the ribosome degradation entry in the data set on E. coli ribosome and in the data set on E. coli ribosome (listed as diethylene glycol linker) were “ribosome degradation could be observed at a concentration of 15 mM” and “degradation visible at 15 mM concentration”, respectively.
For “chloramphenicol-6PEG-imidazole degrader [18a]”, the ribosome degradation result with E. coli ribosome was “no degradation visible”.
For the compound “chloramphenicol-ethyl-imidazole degrader [18c]”, in the data set on E. coli ribosome, the ribosome degradation result was “no degradation visible”.
